From patent US10736922B2, “High telomerase activity bone marrow mesenchymal stem cells, methods of producing the same and pharmaceuticals and treatment methods based thereon” (UNIVERSITY OF SOUTHERN CALIFORNIA, priority 2010, dated 2020) come the findings set out here.

Data set [1] relates to activated SP cells. As to the kind of experiment: Cell survival assay, Transwell co-culture with activated splenocytes (cell counting kit-8). The data set is classed as cell-based, mouse. The settings on record: for tBMMSC / BMMSC effect on cell viability of activated SP cells: L-NMMA 1 mM or 1400W 0.2 mM in co-culture. As for the experimental part:
(§1) Cell apoptosis and cell survival assay. Transwell system (Corning) was used for co-culture experiments. 0.2×10^6 of tBMMSCs or BMMSCs were seeded on each lower chamber. In the upper chambers, activated splenocytes (1×10^6/chamber), which were pre-stimulated with plate-bounded anti CD3ε antibody (5 μg/ml) and soluble anti CD28 antibody (2 μg/ml) for 3 days, were loaded. Both chambers were filled with a complete medium containing Dulbecco's Modified Eagle Medium (DMEM, Lonza) with 10% heat-inactivated FBS, 50 μM 2-mercaptoethanol, 10 mM HEPES, 1 mM sodium pyruvate (Sigma), 1% non-essential amino acid (Cambrex), 2 mM L-glutamine, 100 U/ml penicillin and […] streptomycin. To measure the splenocyte viability, cell counting kit-8 (Dojindo Molecular Technoloies) were used. For apoptosis of splenocyte analysis, Annexin V-PE apoptosis detection kit I (BD Bioscience) were used and analyzed on FACS^Calibur (BD Bioscience).
For orientation: Tetrazolium dyes change colour on reduction, which living cells bring about.

A further data set deals with NO production in BMMSCs. Briefly: Measurement of nitric oxide production in BMMSC culture supernatant. The data set is classed as cell-based, mouse. As for the experimental part: (§2) Inhibitor treatment. tBMMSCs and BMMSCs were treated with 1 mM L-NMMA (Cayman Chemical) or 0.2 mM 1400 W (Cayman Chemical) to inhibit total NOS or iNOS, respectively. Aspirin 50 μg/ml (TAT) and telomerase inhibitor III (1 μM; EMD Chemicals) were used to activate and suppress telomerase activity in cultured BMMSCs, respectively. CHIRON 99021 (1 or 10 μM; Chiron Corporation) and Dickkopf 1 (DKK1, 10 ng/ml, R&D Systems) were used as an activator and inhibitor to regulate β catenin levels in BMMSCs.
Measurement of nitric oxide production. BMMSCs (0.2×10^6/well) were cultured on 24-well plates with or without cytokines (IFNγ, 25 ng/ml; IL-1β, 5 ng/ml, R&D Systems) and chemicals (L-NMMA, 1 mM; 1400W, 0.2 mM; aspirin, 50 μg/ml; Telomerase inhibitor III, 1 μM; CHIRON 99021, 1 or 10 μM; DKK1, 10 ng/ml) at indicated concentration and days. The same chemical concentration was also used in combination treatment such as DKK and aspirin or Telomerase inhibitor and CHIRON99021. The supernatant from each culture was collected and measured nitric oxide concentration using Total Nitric Oxide and Nitrate/Nitrite Parameter Assay kit (R&D Systems) according to manufacturer's instruction.

Data set [2] has as its system activated SP cells. Briefly: Cell apoptosis assay, Transwell co-culture with activated splenocytes (Annexin V/7AAD). The settings on record: for number of early and late apoptotic SP cells in tBMMSC and regular BMMSC groups: L-NMMA 1 mM or 1400W 0.2 mM in co-culture. The data set is classed as cell-based, mouse. The method, then: as §1
A further data set concerns CD4^+CD25^+Foxp3^+ Tregs. Briefly: In vitro CD4+CD25+Foxp3+ Tregs induction. The data set is classed as cell-based, mouse. The settings on record: L-NMMA 1 mM or 1400W 0.2 mM. The method, then: In vitro CD4^+CD25^+Foxp3^+Tregs induction. CD4^+CD25^− T-lymphocytes (1×10^6/well), collected by CD4^+CD25^+ regulatory T-cell Isolation kit (Miltenyi Biotec), were pre-stimulated with plate bounded anti CD3E antibody (5 μg/ml) and soluble anti CD28 antibody (2 μg/ml) for 3 days. These activated T-lymphocytes were loaded on 0.2×10^6 of BMMSC or tBMMSC cultures with recombinant human TFGβ1 (2 μg/ml) (R&D Systems) and recombinant mouse IL2 (2 μg/ml) (R&D Systems). After 3 days, cells in suspension were collected and stained with anti CD4-PerCP, anti CD8a-FITC, anti CD25-APC antibodies (each 1 μg) for 45 min on ice under dark condition. And then cells were stained with anti Foxp3-PE antibody (1 μg) using Foxp3 staining buffer kit (eBioscience) for cell fixation and permeabilization. The cells were analyzed on FACS^Calibur (BD Bioscience).

The target of a further data set is T1, iNOS (Mus musculus, UniProt P29477).
T1 construct: endogenous in cells; host or cells: primary BMMSCs and tBMMSCs
T1 sequence (P29477 1-1144): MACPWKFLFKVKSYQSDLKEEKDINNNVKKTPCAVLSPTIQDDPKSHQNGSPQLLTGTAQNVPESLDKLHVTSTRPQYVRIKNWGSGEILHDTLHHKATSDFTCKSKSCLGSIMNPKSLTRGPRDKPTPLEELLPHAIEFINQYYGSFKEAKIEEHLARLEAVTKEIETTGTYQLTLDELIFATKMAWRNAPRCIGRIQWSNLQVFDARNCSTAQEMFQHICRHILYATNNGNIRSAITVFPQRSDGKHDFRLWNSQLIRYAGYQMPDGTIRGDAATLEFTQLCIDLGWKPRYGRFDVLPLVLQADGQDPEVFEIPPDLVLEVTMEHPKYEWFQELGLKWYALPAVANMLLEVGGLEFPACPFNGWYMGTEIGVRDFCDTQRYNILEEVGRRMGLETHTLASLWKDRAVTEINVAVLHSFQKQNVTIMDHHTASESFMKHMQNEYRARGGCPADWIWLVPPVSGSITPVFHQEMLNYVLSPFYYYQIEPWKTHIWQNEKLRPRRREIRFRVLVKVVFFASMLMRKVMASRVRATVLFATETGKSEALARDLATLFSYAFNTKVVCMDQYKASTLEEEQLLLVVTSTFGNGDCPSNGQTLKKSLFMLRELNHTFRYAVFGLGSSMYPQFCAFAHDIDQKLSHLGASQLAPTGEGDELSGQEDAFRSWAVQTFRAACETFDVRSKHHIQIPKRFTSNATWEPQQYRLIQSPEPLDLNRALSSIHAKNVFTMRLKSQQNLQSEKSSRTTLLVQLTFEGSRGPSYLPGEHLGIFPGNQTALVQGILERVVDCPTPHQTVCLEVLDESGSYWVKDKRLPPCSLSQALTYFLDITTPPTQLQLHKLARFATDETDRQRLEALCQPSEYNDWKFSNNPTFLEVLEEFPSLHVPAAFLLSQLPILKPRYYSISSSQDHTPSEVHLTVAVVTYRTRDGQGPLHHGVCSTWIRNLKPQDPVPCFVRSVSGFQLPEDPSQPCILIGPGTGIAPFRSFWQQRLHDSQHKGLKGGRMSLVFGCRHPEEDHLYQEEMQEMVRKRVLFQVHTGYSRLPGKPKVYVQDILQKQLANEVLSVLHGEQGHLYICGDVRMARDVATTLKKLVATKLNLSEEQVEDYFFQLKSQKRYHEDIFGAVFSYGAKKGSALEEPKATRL
Briefly: Western blot of iNOS expression. The data set is classed as cell-based. The settings on record: BMMSCs and tBMMSCs, L-NMMA 1 mM or 1400W 0.2 mM, 3 days. As for the experimental part:
(§3) Western blotting analysis. […] of protein were used and SDS-PAGE and western blotting were performed according to standard procedures. β-actin on the same membrane served as the loading control.
as §2
For orientation: A western blot detects proteins with antibodies after separation by electrophoresis.

Data set [3] has as its system telomerase reverse transcriptase (TERT). As to the kind of experiment: Western blot of TERT expression. Format: cell-based, mouse. The settings on record: aspirin treatment, one week. The method, then: as §3
A further data set concerns active β-catenin. As to the kind of experiment: Western blot of active beta-catenin in BMMSCs. The data set is classed as cell-based, mouse. The method, then:
as §3, §2

The test system of data set [4] is telomerase. Briefly: Telomerase activity, TeloTAGGG Telomerase PCR ELISA kit, mouse BMMSC cultures. The data set is classed as cell-based. As for the experimental part: as §2
Measurement of telomerase activity. The Telomerase activity was measured using TeloTAGGG Telomerase PCR ELISA kit (Roche).
In general terms: In an ELISA, binding on a coated surface is turned into a signal by an enzyme label.

The subject of data set [5] is telomerase. As to the kind of experiment: Telomerase activity in human BMMSCs, Telo TAGGG Telomerase PCR ELISA kit. Format: cell-based. The settings on record: aspirin in culture medium at 2.5 μg/ml or 50 μg/ml for 1 week.
The subject of data set [6] is CD73, Sca-1, Oct4, SSEA4, CD34, CD45. As to the kind of experiment: Flow cytometric analysis of mesenchymal stem cell surface molecules. Format: cell-based, mouse. The settings on record: aspirin treatment. As for the experimental part:
Flow cytometric analysis of mesenchymal stem cell surface molecules. BMMSCs or pBMMSCs (0.2×10^6) were incubated with 1 µg of PE conjugated antibodies or isotype-matched control IgGs (Southern Biotech) at 4° C. for 45 min. Samples were analyzed by FACS^Calibur flow cytometer (BD Bioscience). For dual color analysis, the cells were treated with PE conjugated and FITC conjugated antibodies or isotype-matched control IgGs (each 1 […]g). The cells were analyzed on FACS^Calibur (BD Bioscience).

The mark [7] stands for this setting: L-NMMA 1 mM or 1400W 0.2 mM, 3 days.
The mark [8] stands for this setting: BMMSCs treated with aspirin (TAT) prior to co-culture.

As to `CC(=N)NCc1cccc(CN)c1` [1400W], the “tBMMSC / BMMSC effect on cell viability of activated SP cells” value in the data set on activated SP cells [1] was “significantly block tBMMSC, but not regular BMMSC, induced cell viability”. Further, the “NO production in BMMSCs” value with NO production in BMMSCs (setting [7]) is “inhibit NO production”. In addition, the “inhibition of early apoptotic SP cells, tBMMSC group compared to regular BMMSC group” value in the data set with activated SP cells [2] (1400W 0.2 mM) was “significantly greater inhibition”. Further, the “number of early and late apoptotic SP cells in tBMMSC and regular BMMSC groups” value in the data set with activated SP cells [2] is listed as “significantly reduced”. In addition, the “BMMSC- and tBMMSC-induced up-regulation of Tregs” value in the data set with CD4^+CD25^+Foxp3^+ Tregs is given as “inhibit”. Also, the iNOS expression result at iNOS is reported as “inhibited”.
As to `CC(=O)Oc1ccccc1C(=O)O` [aspirin], the “telomerase reverse transcriptase (TERT) expression in BMMSCs” value in [3] was “significantly elevated”. For the same compound, in the data set with activated SP cells [1] (setting [8]), the “BMMSC-induced reduction of activated SP cell viability” value was “promote BMMSC-induced reduction of activated SP cell viability”. Further, in the data set on active β-catenin (aspirin (TAT) treatment), the “DKK1-induced down-regulation of activated beta-catenin” value is recorded as “partially block”. Besides, the “Telomerase activity in BMMSCs” value in the data set with telomerase [4] (regular BMMSCs cultured with aspirin (50 μg/ml) for one week) is given as “significantly elevated”. The “Telomerase activity in human BMMSCs” value with telomerase [5] is given as “significantly increased level of telomerase activity”. For the same compound, the “NO production in BMMSCs” value in the data set with NO production in BMMSCs (regular BMMSCs cultured with aspirin for one week) is “significantly elevated”. Also, in the data set on activated SP cells [2] (setting [8]), the “BMMSC-induced early and late apoptosis of activated SP cells” value is “elevation of early and late apoptosis”. Moreover, the “CD34 expression in BMMSCs” value in data set [6] is listed as “elevates CD34 expression”.
In the case of “DKK1: Wnt inhibitor, Dickkopf 1 (R&D Systems)”, in the data set with active β-catenin (DKK1 10 ng/ml), the “activated β-catenin level in BMMSCs” value was “reducing activated β-catenin level”. In addition, the “aspirin (TAT)-induced telomerase activity in BMMSCs” value in the data set with telomerase [4] (DKK1 10 ng/ml, DKK-TAT) was “capable of blocking”. Besides, in the data set on NO production in BMMSCs (DKK1 10 ng/ml added prior to aspirin (TAT) treatment, three days), the “aspirin-induced NO production in BMMSCs” value is “significantly block”.
As to `CNC(=N)NCCC[C@H](N)C(=O)O` [L-NMMA, NG-monomethyl-L-arginine], the “tBMMSC / BMMSC effect on cell viability of activated SP cells” value in the data set on activated SP cells [1] was “significantly block tBMMSC, but not regular BMMSC, induced cell viability”. Moreover, the “NO production in BMMSCs” value with NO production in BMMSCs (setting [7]) is given as “inhibit NO production”. Further, the “number of early and late apoptotic SP cells in tBMMSC and regular BMMSC groups” value in the data set with activated SP cells [2] is on record as “significantly reduced”. Moreover, in the data set on CD4^+CD25^+Foxp3^+ Tregs, the “BMMSC- and tBMMSC-induced up-regulation of Tregs” value is listed as “inhibit”. Moreover, on iNOS, the iNOS expression result is on record as “inhibited”.
As for `Cc1cnc(-c2cnc(NCCNc3ccc(C#N)cn3)nc2-c2ccc(Cl)cc2Cl)[nH]1` [Chiron 99021], the “active beta-catenin in BMMSCs” value with active β-catenin (Chiron 99021, 7 days) is listed as “elevation of active beta-catenin in a dose-dependent manner”. In addition, the “Telomerase activity in BMMSCs” value in the data set with telomerase [4] (Chiron treatment, 7 days) is recorded as “elevated telomerase activity”. In addition, in the data set with NO production in BMMSCs (Chiron 1 and 10 μM, 1 week), the “NO production in BMMSCs” value is on record as “up-regulated NO production in BMMSCs in a dose-dependent manner”.
